Assay results: patent US11472845B2, “Antitumor peptide and use thereof” (TOAGOSEI CO., LTD., priority 2019, dated 2022)
Read-outs that look alike come from different tables or passages of the source. Ends that are not written are not given here.

Legend:
Type in all cases: cell-based
[1] = system: human alveolar basal epithelial adenocarcinoma cell lines (A549); conditions: for Cell viability (%) of test cells: human, 48 h
Method: The antitumor activity of Sample 1 synthesized in the above Test Example 1 with respect to human-derived cultured tumor cells was evaluated. Currently commercially available human gastric cancer cell lines (FU97), human alveolar basal epithelial adenocarcinoma cell lines (A549), human breast cancer cell lines (MDA-MB-231), and human melanoma cell lines (A375) were prepared as test tumor cells. In addition, normal human mammary epithelial cell culture lines (MCF-12F) were prepared for comparison. An RPMI-1640 culture medium including 2 mM of L-glutamine, 1 mM of sodium pyruvate, 10 mM of HEPES, […] of glucose, 50 unit/mL of penicillin, 50 μg/mL of streptomycin, and 10% FBS (product, commercially available from Wako Pure Chemical Industries, Ltd.). The above five types of cell lines were cultured in respective designated culture solutions. The cell lines were cultured so that the number of cells per well in a 96-hole (well) plate was about 5×10^3. Here, an amount of the culture solution per well was 100 μL. The 96-well plate was then placed in a CO2 incubator. Then, pre-incubation was performed under conditions of 37° C. and 5% CO2 for about 1 day (about 23 hours). Then, regarding the culture solution for the peptide addition area, culture solutions containing Sample 1 for each concentration were prepared so that the concentration of Sample 1 was 6.25 μM, 12.5 μM or 25 μM and supplied to wells (that is, wells after the pre-incubation) in which 90 μL of cells to be evaluated were cultured in each well. On the other hand, regarding the culture solution for the comparative test area, a culture solution to which no Sample 1 was added was prepared, and supplied to wells (that is, wells after the pre-incubation) in which 90 μL of cells to be evaluated were cultured in each well. The 96-well plate was then placed in a CO2 incubator, and incubated under conditions of 37° C. and 5% CO2 for 48 hours. […] Then, the absorbance at a wavelength of 450 nm (value corrected by the absorbance at a wavelength of 620 nm: A450-A620) was measured based on the reduction of the tetrazolium salt in the culture solution. Then, the cell viability was calculated according to a colorimetric method. In the test areas (test areas 1 to 3) in the peptide addition area, the cell viability of each of the above five types of cell lines was calculated as a relative value when a measured value (measurement absorbance) of the comparative test area in the same cell lines was set as 100%. That is, regarding each of the above five types of cell lines, the cell viability (%) was calculated by dividing the measurement absorbance of the test areas (test areas 1 to 3) in the peptide addition area by the measurement absorbance of the comparative test area in the same cell lines and multiplying by 100.

in vitro = conditions: human
Method: Currently commercially available human gastric cancer cell lines (FU97), human alveolar basal epithelial adenocarcinoma cell lines (A549), human breast cancer cell lines (MDA-MB-231), and human melanoma cell lines (A375) were prepared as test tumor cells. In addition, normal human mammary epithelial cell culture lines (MCF-12F) were prepared for comparison. A DMEM/F12 culture medium including 20 ng/mL of recombinant EGF, 10 μg/mL of insulin, 0.5 μg/mL of hydrocortisone, and 10% FBS (product, commercially available from Wako Pure Chemical Industries, Ltd.). The above five types of cell lines were cultured in respective designated culture solutions. The cell lines were cultured so that the number of cells per well in a 96-hole (well) plate was about 5×10^3. Here, an amount of the culture solution per well was 100 μL. The 96-well plate was then placed in a CO2 incubator. Then, pre-incubation was performed under conditions of 37° C. and 5% CO2 for about 1 day (about 23 hours). Then, regarding the culture solution for the peptide addition area, culture solutions containing Sample 1 for each concentration were prepared so that the concentration of Sample 1 was 6.25 μM, 12.5 μM or 25 μM and supplied to wells (that is, wells after the pre-incubation) in which 90 μL of cells to be evaluated were cultured in each well. On the other hand, regarding the culture solution for the comparative test area, a culture solution to which no Sample 1 was added was prepared, and supplied to wells (that is, wells after the pre-incubation) in which 90 μL of cells to be evaluated were cultured in each well. The 96-well plate was then placed in a CO2 incubator, and incubated under conditions of 37° C. and 5% CO2 for 48 hours. […] Then, the absorbance at a wavelength of 450 nm (value corrected by the absorbance at a wavelength of 620 nm: A450-A620) was measured based on the reduction of the tetrazolium salt in the culture solution. Then, the cell viability was calculated according to a colorimetric method. […]

[2] = system: tumor cells derived from non-human mammals; assay: Antitumor activity on tumor cells derived from non-human mammals (data not shown); conditions: detailed data not shown

MACLGFQRHKAQLNLATRTWPCTLLFFLLFIPVFCKKRTLRKTDRKKR-NH2 (cysteines drawn unpaired) [Sample 1]
Specific cell viability of test tumor cells ([1]; A549, 12.5 μM Sample 1, (cell viability of test tumor cells)/(cell viability of MCF-12F cells)×100): 36.0
Cell viability (%) of test cells ([1]; 6.25 μM): 64.7%
Cell viability (%) of test cells ([1]; 12.5 μM): 41.1%
Cell viability (%) of test cells ([1]; 25 μM): 24.9%
viability at 48 h, 6.25 μM (in vitro): 130%
viability at 48 h, 12.5 μM (in vitro): 114%
viability at 48 h, 25 μM (in vitro): 82%
antitumor activity and tumor cell-selective antitumor activity [2]: high antitumor activity and tumor cell-selective antitumor activity
